Data from patent US20210246122A1, “Triazine Compounds and Uses Thereof” (Aduro Biotech, Inc., priority 2018, published 2021).

What was measured:
[1] = system: cGAS/STING pathway; experiment: THP1 cell-based cGAS/STING pathway activity assay (luciferase reporter linked to IRF-3 activation); settings: Homo sapiens, THP-1; THP1 cells, IRF-3 linked luciferase reporter
Procedure: A cellular assay can be used to assess the compounds of the invention for their ability to inhibit the cGAS/STING pathway. Cells that express a luciferase-based reporter that is linked to IRF-3 activation are used to determine response as a function of compound concentration. Such an assay is described in Vincent et al., Nature Communications 2017, 8(1):750, doi: 10.1038/s41467-017-00833-9. Compounds of the invention were assessed using similar assay methods in a THP1 cell assay to generate IC50 values as provided in the following Table 8. In this table, activity level “A” indicates an IC50 value less than 20 μM, “B” indicates an IC50 value between 20 and 100 μM, and “C” indicates an IC50 value above the upper limit of the assay (100 μM), or where an IC50 value could not be generated from the data.

[2] = biological target: T1, Human cGAS amino acids 155-522 (Homo sapiens, UniProt Q8N884); experiment: cGAS activity assay (DNA-activated cGAS, remaining ATP measured by Kinase-Glo Max luciferase assay); assay type: biochemical; settings: 300 nM purified cGAS, 1 μM dsDNA, 250 μM ATP, 100 μM GTP, 37° C. for 1.25 hours
T1 construct: hexahistidine tag (N, cleaved yes); made in house; host or cells: E. coli BL21 DE3 Rosetta 2
T1 sequence (Q8N884 157-522): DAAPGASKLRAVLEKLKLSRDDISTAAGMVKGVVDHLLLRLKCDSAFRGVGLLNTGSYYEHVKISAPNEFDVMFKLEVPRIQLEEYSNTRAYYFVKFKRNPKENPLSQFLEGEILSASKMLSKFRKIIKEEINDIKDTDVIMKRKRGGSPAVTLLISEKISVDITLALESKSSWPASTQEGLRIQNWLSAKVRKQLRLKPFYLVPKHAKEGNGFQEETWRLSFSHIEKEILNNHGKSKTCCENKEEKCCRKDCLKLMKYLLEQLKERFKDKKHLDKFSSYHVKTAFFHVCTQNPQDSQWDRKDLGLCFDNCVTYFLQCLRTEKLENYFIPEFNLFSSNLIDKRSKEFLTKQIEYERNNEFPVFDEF
Procedure: IC50 values were determined as follows:
Human cGAS sequence encoding amino acids 155-522 was cloned into a pET (EMD Millipore) based expression plasmid. The resulting construct contained a tandem N-terminal hexahistidine tag, maltose binding protein fusion followed by a tobacco etch virus protease cleavable linker preceding cGAS amino acids 155-522.
Construct sequence: Amino acids 155-522, Human cGAS
Protein was expressed and purified from E. coli BL21 DE3 Rosetta 2 (EMD Millipore) cells using standard techniques. Cells were grown in 2× yeast extract tryptone medium and expression was initiated via the addition of isopropyl β-D-1-thiogalactopyranoside. Expression proceeded overnight at 18° C. Cells were harvested by centrifugation and subsequently lysed via sonication. Insoluble fraction was removed by centrifugation. Maltose binding protein (MBP) fusion proteins were purified on a dextrin sepharose column (GE Healthcare) and the MBP tag was removed using tobacco etch virus protease overnight during dialysis. Protein was further purified on a heparin column (GE Healthcare) and eluted using a NaCl gradient. Column fraction were pooled and further purified on a Superdex 75 gel filtration column (GE Healthcare). Protein was quantified using 280 nm absorbance. Protein was then flash frozen in liquid nitrogen and stored at −80° C. until use.
Potential antagonists were diluted in 100% dimethyl sulfoxide and added to the reaction. Final dimethyl sulfoxide concentration was 5%. The compounds were tested from 1 μM with either 3- or 4-fold serial dilutions down to 0.000051 or 0.000004 μM respectively.
Two complementary DNA oligos (IDT DNA) were annealed by slow cooling from 95° C. The resulting double stranded DNA was used to activate cGAS.
Reactions were performed at 37° C. for 1.25 hours. Reaction buffer: 20 mM Tris HCl pH 9, 100 mM NaCl, 5 mM MgCl2, 0.1 mg/ml bovine gamma globulin, 250 μM adenosine triphosphate, 100 μM guanosine triphosphate, 0.5 mM Tris(2-carboxyethyl)phosphine hydrochloride, 1 μM double stranded DNA and 300 nM purified cGAS protein.
Reactions were stopped and ATP levels in the reaction were measured using a luciferase based assay. Promega Kinase-Glo Max Assay. Luminescence was measured on a plate reader (Molecular Devices). Values were normalized to control wells lacking compound.

| IC50 [1] [µM] | IC50 [2] [µM] | Compound |
| --- | --- | --- |
| > 100 | < 20 | CNC(=O)[C@H](Cc1ccc(C#N)cc1)Nc1nc(NCc2nc3cc(F)ccc3[nH]2)nc(Nc2cccc(CN3CCN(C(=O)c4nccnc4O)CC3)c2)n1 [TA1024, (S)-3-(4-cyanophenyl)-2-((4-(((5-fluoro-1H-benzo[d]imidazol-2-yl)methyl)amino)-6-((3-((4-(3-hydroxypyrazine-2-carbonyl)piperazin-1-yl)methyl)phenyl)amino)-1,3,5-triazin-2-yl)amino)-N-methylpropanamide] |
| > 100 | < 20 | COCCNC(=O)[C@H](Cc1ccc(C#N)cc1)Nc1nc(NCc2nc3cc(F)ccc3[nH]2)nc(Nc2cccc(CN3CCN(C(=O)c4nccnc4O)CC3)c2)n1 [TA1018, (S)-3-(4-cyanophenyl)-2-((4-(((5-fluoro-1H-benzo[d]imidazol-2-yl)methyl)amino)-6-((3-((4-(3-hydroxypyrazine-2-carbonyl)piperazin-1-yl)methyl)phenyl)amino)-1,3,5-triazin-2-yl)amino)-N-(2-methoxyethyl)propanamide] |
| > 100 | < 20 | COC(=O)[C@H](Cc1ccc(C#N)cc1)Nc1nc(NCc2nc3cc(Cl)ccc3[nH]2)nc(Nc2cccc(CN3CCN(C(=O)c4c[nH]nn4)CC3)c2)n1 [TA1061, methyl (S)-2-((4-((3-((4-(1H-1,2,3-triazole-4-carbonyl)piperazin-1-yl)methyl)phenyl)amino)-6-(((5-chloro-1H-benzo[d]imidazol-2-yl)methyl)amino)-1,3,5-triazin-2-yl)amino)-3-(4-cyanophenyl)propanoate] |
| 20 to 100 | < 20 | COC(=O)[C@H](Cc1ccccc1)Nc1nc(NCc2nc3cc(F)ccc3[nH]2)nc(Nc2cccc(CN3CCN(C(=O)c4nccnc4O)CC3)c2)n1 [TA1065, methyl (4-(((5-fluoro-1H-benzo[d]imidazol-2-yl)methyl)amino)-6-((3-((4-(3-hydroxypyrazine-2-carbonyl)piperazin-1-yl)methyl)phenyl)amino)-1,3,5-triazin-2-yl)-L-phenylalaninate] |
| > 100 | < 20 | COC(=O)[C@H](Cc1ccc(C#N)cc1)Nc1nc(NCc2nc3cc(F)ccc3[nH]2)nc(Nc2cccc(CN3CCN(C(=O)c4nccnc4O)CC3)c2)n1 [TA1020, methyl (S)-3-(4-cyanophenyl)-2-((4-(((5-fluoro-1H-benzo[d]imidazol-2-yl)methyl)amino)-6-((3-((4-(3-hydroxypyrazine-2-carbonyl)piperazin-1-yl)methyl)phenyl)amino)-1,3,5-triazin-2-yl)amino)propanoate] |
| > 100 | < 20 | COC(=O)[C@H](Cc1ccc(C#N)cc1)Nc1nc(NCc2nc3cc(F)ccc3[nH]2)nc(Nc2cccc(CN3CCN(C(=O)c4ccnnc4O)CC3)c2)n1 [TA1066, methyl (S)-3-(4-cyanophenyl)-2-((4-(((5-fluoro-1H-benzo[d]imidazol-2-yl)methyl)amino)-6-((3-((4-(3-hydroxypyridazine-4-carbonyl)piperazin-1-yl)methyl)phenyl)amino)-1,3,5-triazin-2-yl)amino)propanoate] |
| > 100 | < 20 | COC(=O)[C@@H](Cc1ccc(C#N)cc1)Nc1nc(NCc2nc3cc(F)ccc3[nH]2)nc(Nc2cccc(CN3CCN(C(=O)c4nccnc4O)CC3)c2)n1 [TA1027, methyl (R)-3-(4-cyanophenyl)-2-((4-(((5-fluoro-1H-benzo[d]imidazol-2-yl)methyl)amino)-6-((3-((4-(3-hydroxypyrazine-2-carbonyl)piperazin-1-yl)methyl)phenyl)amino)-1,3,5-triazin-2-yl)amino)propanoate] |
| > 100 | < 20 | COCCOCCOC(=O)[C@H](Cc1ccc(C#N)cc1)Nc1nc(NCc2nc3cc(F)ccc3[nH]2)nc(Nc2cccc(CN3CCN(C(=O)c4nccnc4O)CC3)c2)n1 [TA1070, 2-(2-methoxyethoxy)ethyl (S)-3-(4-cyanophenyl)-2-((4-(((5-fluoro-1H-benzo[d]imidazol-2-yl)methyl)amino)-6-((3-((4-(3-hydroxypyrazine-2-carbonyl)piperazin-1-yl)methyl)phenyl)amino)-1,3,5-triazin-2-yl)amino)propanoate] |
| > 100 | < 20 | COC(=O)[C@H](Cc1ccc(C#N)cc1)Nc1nc(Nc2cccc(CN3CCN(C(=O)c4nccnc4O)CC3)c2)nc(N(C)CCc2nc3ccc(OC)cc3[nH]2)n1 [TA1053, methyl (S)-3-(4-cyanophenyl)-2-((4-((3-((4-(3-hydroxypyrazine-2-carbonyl)piperazin-1-yl)methyl)phenyl)amino)-6-((2-(6-methoxy-1H-benzo[d]imidazol-2-yl)ethyl)(methyl)amino)-1,3,5-triazin-2-yl)amino)propanoate] |
|  | > 250 | COC(=O)[C@H](Cc1ccccc1)Nc1nc(NCc2nc3cc(F)ccc3[nH]2)nc(Nc2cccc(CN3CCNCC3)c2)n1 [TA1064, methyl (4-(((5-fluoro-1H-benzo[d]imidazol-2-yl)methyl)amino)-6-((3-(piperazin-1-ylmethyl)phenyl)amino)-1,3,5-triazin-2-yl)phenylalaninate] |
|  | > 250 | CN(C)C(=O)[C@H](Cc1ccc(C#N)cc1)Nc1nc(Cl)nc(Nc2cccc(CN3CCNCC3)c2)n1 [TA1009, (S)-2-((4-chloro-6-((3-(piperazin-1-ylmethyl)phenyl)amino)-1,3,5-triazin-2-yl)amino)-3-(4-cyanophenyl)-N,N-dimethylpropanamide] |
|  | > 250 | COCCOCCNC(=O)[C@H](Cc1ccc(C#N)cc1)Nc1nc(NCc2nc3cc(F)ccc3[nH]2)nc(Nc2cccc(CN3CCNCC3)c2)n1 [TA1023, (S)-3-(4-cyanophenyl)-2-((4-(((5-fluoro-1H-benzo[d]imidazol-2-yl)methyl)amino)-6-((3-(piperazin-1-ylmethyl)phenyl)amino)-1,3,5-triazin-2-yl)amino)-N-(2-(2-methoxyethoxy)ethyl)propanamide] |
|  | > 250 | COC(=O)[C@H](Cc1ccc(C#N)cc1)Nc1nc(NCc2nc3cc(F)ccc3[nH]2)nc(Nc2cccc(CN3CCN(C(=O)OC(C)(C)C)CC3)c2)n1 [TA1003, tert-butyl (S)-4-(3-((4-((3-(4-cyanophenyl)-1-methoxy-1-oxopropan-2-yl)amino)-6-(((5-fluoro-1H-benzo[d]imidazol-2-yl)methyl)amino)-1,3,5-triazin-2-yl)amino)benzyl)piperazine-1-carboxylate] |
|  | > 250 | Cc1cc2nc(CN(C)c3nc(Nc4cccc(CN5CCN(C(=O)c6cc7[nH]cnc7cc6C)CC5)c4)nc(N[C@@H](Cc4ccc(C#N)cc4)C(=O)N(C)C)n3)[nH]c2cc1C [TA1015, (S)-3-(4-cyanophenyl)-2-((4-(((5,6-dimethyl-1H-benzo[d]imidazol-2-yl)methyl)(methyl)amino)-6-((3-((4-(5-methyl-1H-benzo[d]imidazole-6-carbonyl)piperazin-1-yl)methyl)phenyl)amino)-1,3,5-triazin-2-yl)amino)-N,N-dimethylpropanamide] |
|  | > 250 | CN(C)C(=O)[C@H](Cc1ccc(C#N)cc1)Nc1ncnc(Nc2cccc(CN3CCNCC3)c2)n1 [TA1011, (S)-3-(4-cyanophenyl)-N,N-dimethyl-2-((4-((3-(piperazin-1-ylmethyl)phenyl)amino)-1,3,5-triazin-2-yl)amino)propanamide] |
|  | 20 to 250 | COC(=O)[C@H](Cc1ccc(C#N)cc1)Nc1nc(NCc2ccccc2)nc(Nc2cccc(CN3CCN(C(=O)c4nccnc4O)CC3)c2)n1 [TA1050, methyl (S)-2-((4-(benzylamino)-6-((3-((4-(3-hydroxypyrazine-2-carbonyl)piperazin-1-yl)methyl)phenyl)amino)-1,3,5-triazin-2-yl)amino)-3-(4-cyanophenyl)propanoate] |
|  | > 250 | COC(=O)[C@H](Cc1ccc(C#N)cc1)Nc1nc(NCc2nc3cc(F)ccc3[nH]2)nc(Nc2cccc(CN3CCN(C(C)=O)CC3)c2)n1 [TA1075, methyl (S)-2-((4-((3-((4-acetylpiperazin-1-yl)methyl)phenyl)amino)-6-(((5-fluoro-1H-benzo[d]imidazol-2-yl)methyl)amino)-1,3,5-triazin-2-yl)amino)-3-(4-cyanophenyl)propanoate] |
